Measured values: PubChem BioAssay AID330 (DTP/NCI, 2004)
“And” between values parts separate entries of the source, which are not always exact repeats. Equal values may be shown once. Toxic doses and inconclusive results are not listed.

Tested on: P388 leukemia ip, CD2F1 mice, survival T/C
Assay: NCI In Vivo Anticancer Drug Screen. Data for tumor model P388 Leukemia (intraperitoneal) in CD2F1 (CDF1) mice
Conditions: endpoint: median survival time, higher = longer survival
Summary of the method: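 Mice carrying the transplanted tumor received test compound or vehicle. Survival was recorded in each group, and the value is the treated-group measurement divided by that of the vehicle-treated control group.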

[1] = dose: 100.0 mg/kg/injection, schedule: Q01DX009 (ip), vehicle: saline with Tween-80
[2] = dose: 200.0 mg/kg/injection, schedule: Q01DX009 (ip), vehicle: saline with Tween-80
[3] = dose: 50.0 mg/kg/injection, schedule: Q01DX009 (ip), vehicle: Klucel (hydroxypropylcellulose) (HPC)
[4] = dose: 100.0 mg/kg/injection, schedule: Q01DX009 (ip), vehicle: Klucel (hydroxypropylcellulose) (HPC)
[5] = dose: 200.0 mg/kg/injection, schedule: Q01DX009 (ip), vehicle: Klucel (hydroxypropylcellulose) (HPC)
[6] = dose: 50.0 mg/kg/injection, schedule: Q01DX005 (ip), vehicle: Klucel (hydroxypropylcellulose) (HPC)
[7] = dose: 100.0 mg/kg/injection, schedule: Q01DX005 (ip), vehicle: Klucel (hydroxypropylcellulose) (HPC)
[8] = dose: 200.0 mg/kg/injection, schedule: Q01DX005 (ip), vehicle: Klucel (hydroxypropylcellulose) (HPC)
[9] = dose: 50.0 mg/kg/injection, schedule: Q01DX005 (ip), vehicle: saline with Tween-80
[10] = dose: 100.0 mg/kg/injection, schedule: Q01DX005 (ip), vehicle: saline with Tween-80
[11] = dose: 200.0 mg/kg/injection, schedule: Q01DX005 (ip), vehicle: saline with Tween-80
[12] = dose: 50.0 mg/kg/injection, schedule: Q04DX003 (ip), vehicle: saline with Tween-80
[13] = dose: 100.0 mg/kg/injection, schedule: Q04DX003 (ip), vehicle: saline with Tween-80
[14] = dose: 200.0 mg/kg/injection, schedule: Q04DX003 (ip), vehicle: saline with Tween-80
[15] = dose: 12.5 mg/kg/injection, schedule: Q01DX009 (ip), vehicle: saline
[16] = dose: 25.0 mg/kg/injection, schedule: Q01DX009 (ip), vehicle: saline
[17] = dose: 50.0 mg/kg/injection, schedule: Q01DX009 (ip), vehicle: saline

With `CCC1(N(C)C)C(=O)NC(=O)N(C)C1=O` (stereo unspecified) the T/C (dose: 60.0 mg/kg/injection, schedule: Q01DX005 (ip), vehicle: Klucel (hydroxypropylcellulose) (HPC)) was 103 % of control, the T/C (dose: 120.0 mg/kg/injection, schedule: Q01DX005 (ip), vehicle: Klucel (hydroxypropylcellulose) (HPC)) was 101 % of control and the T/C (dose: 2400.0 mg/kg/injection, schedule: Q01DX005 (ip), vehicle: Klucel (hydroxypropylcellulose) (HPC)) was 104 % of control.
For `COC(=O)c1cccc(COc2ccc([N+](=O)[O-])cc2Cl)c1`, the T/C [1] was 100 % of control, the T/C [2] was 100 % of control and the T/C (dose: 400.0 mg/kg/injection, schedule: Q01DX009 (ip), vehicle: saline with Tween-80) was 110 % of control.
In the case of `Cc1cnc(=O)[nH]c1NOCc1ccccc1`, the T/C (dose: 15.0 mg/kg/injection, schedule: Q01DX001 (ip), vehicle: saline) is reported as 98 % of control, the T/C (dose: 30.0 mg/kg/injection, schedule: Q01DX001 (ip), vehicle: saline) is reported as 105 % of control and the T/C (dose: 60.0 mg/kg/injection, schedule: Q01DX001 (ip), vehicle: saline) is reported as 100 % of control.
`COc1ccc(OC)c(N2C(=O)C(=O)C(C(C)=O)C2=O)c1` (stereo unspecified) was tested, and the T/C [3] was 107 % of control, the T/C [4] was 101 % of control and the T/C [5] was 105 % of control.
For `Cc1[nH]n(-c2cc(S(=O)(=O)O)ccc2Cl)c(=O)c1N=Nc1ccc(C(=O)Nc2ccc(S(=O)(=O)O)cc2)cc1`, the T/C [6] was 99 % of control, the T/C [7] was 92 % of control and the T/C [8] was 99 % of control.
In the case of `Cc1cc(=O)c2ccc(Br)cc2[nH]1`, the T/C [9] is reported as 100 % of control, the T/C [10] is reported as 97 % of control and the T/C [11] is reported as 100 % of control.
For `O=C(/C=C/c1ccc(O)cc1)c1ccccc1`, the T/C [12] was 105 % of control and 94 % of control, the T/C [13] was 98 % of control and 105 % of control and the T/C [14] was 103 % of control and 105 % of control. The T/C (dose: 400.0 mg/kg/injection, schedule: Q04DX003 (ip), vehicle: saline with Tween-80) was 105 % of control.
With `COc1ccccc1/C(=N/Nc1ccccc1)[N+](=O)[O-]` the T/C (dose: 50.0 mg/kg/injection, schedule: Q01DX009 (ip), vehicle: saline + Tween-80 + alcohol) was 106 % of control, the T/C (dose: 100.0 mg/kg/injection, schedule: Q01DX009 (ip), vehicle: saline + Tween-80 + alcohol) was 101 % of control and the T/C (dose: 200.0 mg/kg/injection, schedule: Q01DX009 (ip), vehicle: saline + Tween-80 + alcohol) was 109 % of control.
For `Nc1nc(N)c2cn[nH]c2n1`, the T/C (dose: 6.25 mg/kg/injection, schedule: Q01DX009 (ip), vehicle: saline) was 95 % of control, the T/C [15] was 93 % of control and the T/C [16] was 100 % of control. The T/C [17] was 104 % of control.
In the case of `CC(=O)N/N=C1/C=C2C/C(=N\NC(C)=O)C=C2C1`, the T/C [9] is reported as 99 % of control, the T/C [10] is reported as 95 % of control and the T/C [11] is reported as 90 % of control.
In the case of `CC1C(=O)OC2CCN3CC4OC4(COC(=O)C(C)(O)C1(C)O)C23` (stereo unspecified), the T/C (dose: 132.0 mg/kg/injection, schedule: Q04DX003 (ip), vehicle: saline with Tween-80) is reported as 90 % of control, the T/C [14] is reported as 110 % of control and the T/C (dose: 300.0 mg/kg/injection, schedule: Q04DX003 (ip), vehicle: saline with Tween-80) is reported as 100 % of control.
`Clc1cccc(N=Cc2ccc(C=Nc3cccc(Cl)c3Cl)cc2)c1Cl` was tested, and the T/C [3] was 94 % of control, the T/C [4] was 91 % of control and the T/C [5] was 90 % of control.
In the case of `NCC(=O)O.[Cl-].[Cl-].[Cl-].[Cl-].[Pt+2]`, the T/C [15] is reported as 124 % of control, the T/C (dose: 14.7 mg/kg/injection, schedule: Q01DX009 (ip), vehicle: saline) is reported as 108 % of control and the T/C (dose: 22.0 mg/kg/injection, schedule: Q01DX009 (ip), vehicle: saline) is reported as 108 % of control.
In the case of `O=[N+]([O-])c1cc([N+](=O)[O-])c(Cl)s1`, the T/C (dose: 6.25 mg/kg/injection, schedule: Q01DX009 (ip), vehicle: saline with Tween-80) is reported as 104 % of control and the T/C (dose: 12.5 mg/kg/injection, schedule: Q01DX009 (ip), vehicle: saline with Tween-80) is reported as 100 % of control.
For `COc1ccccc1CN1CC(C)N(N=Cc2c3c(O)c4c(O)c(C)c5c(c4c2O)C(=O)C(C)(O/C=C/C(OC)C(C)C(OC(C)=O)C(C)C(O)C(C)C(O)C(C)/C=C/C=C(\C)C(=O)N3)O5)C(C)C1` (stereo unspecified), the T/C (dose: 50.0 mg/kg/injection, schedule: Q01DX009 (ip), vehicle: saline with Tween-80) was 102 % of control, the T/C [1] was 107 % of control and the T/C [2] was 117 % of control.
`C=CN1C(=O)NC2(CCCCC2)C1=O` was tested, and the T/C (dose: 25.0 mg/kg/injection, schedule: Q04DX003 (ip), vehicle: saline with Tween-80) was 100 % of control, the T/C [12] was 100 % of control and the T/C [13] was 90 % of control.
With `CCn1c2ccccc2c2cc(N)c(N=Nc3ccc([N+](=O)[O-])cc3)cc21` the T/C [3] was 105 % of control, the T/C [4] was 104 % of control and the T/C [5] was 105 % of control.
For `NC(=O)NC1CC2CCC1C2` (stereo unspecified), the T/C (dose: 50.0 mg/kg/injection, schedule: Q01DX005 (ip), vehicle: saline) was 101 % of control, the T/C (dose: 100.0 mg/kg/injection, schedule: Q01DX005 (ip), vehicle: saline) was 101 % of control and the T/C (dose: 200.0 mg/kg/injection, schedule: Q01DX005 (ip), vehicle: saline) was 105 % of control.
In the case of `COc1cc(OC)cc(C2OC(N)=C(O)C2=O)c1` (stereo unspecified), the T/C [6] is reported as 93 % of control, the T/C [7] is reported as 90 % of control and the T/C [8] is reported as 91 % of control.
With `N=C(N)c1ccc(Nc2ccc(-c3cc4ccc(C(=N)N)cc4[nH]3)cc2)cc1` the T/C (dose: 1.87 mg/kg/injection, schedule: Q01DX005 (ip), vehicle: Klucel (hydroxypropylcellulose) (HPC)) was 174 % of control and the T/C (dose: 7.5 mg/kg/injection, schedule: Q01DX005 (ip), vehicle: Klucel (hydroxypropylcellulose) (HPC)) was 166 % of control and 194 % of control.
For `COC(=O)C1C2CC3c4[nH]c5cc(OC)ccc5c4CCN3CC2CC(O)C1OC` (stereo unspecified), the T/C [6] was 97 % of control and the T/C [7] was 97 % of control.
For `C[n+]1ccc2ccccc2c1-c1c2ccccc2cc[n+]1C`, the T/C (dose: 12.5 mg/kg/injection, schedule: Q01DX001 (ip), vehicle: saline) was 115 % of control, the T/C (dose: 25.0 mg/kg/injection, schedule: Q01DX001 (ip), vehicle: saline) was 101 % of control and the T/C (dose: 50.0 mg/kg/injection, schedule: Q01DX001 (ip), vehicle: saline) was 99 % of control.
In the case of `Nc1c(Cl)ncnc1NCCN1CCOCC1`, the T/C [6] is reported as 99 % of control and the T/C [7] is reported as 96 % of control.
For `CC(C)COC(CN(C)C)C(Cl)(Cl)Cl` (stereo unspecified), the T/C [17] was 107 % of control, the T/C (dose: 100.0 mg/kg/injection, schedule: Q01DX009 (ip), vehicle: saline) was 100 % of control and the T/C (dose: 200.0 mg/kg/injection, schedule: Q01DX009 (ip), vehicle: saline) was 116 % of control.
`Cc1cc2ncc(-c3ccccc3)nc2cc1C` was tested, and the T/C (dose: 25.0 mg/kg/injection, schedule: Q01DX001 (ip), vehicle: saline with Tween-80) was 100 % of control, the T/C (dose: 50.0 mg/kg/injection, schedule: Q01DX001 (ip), vehicle: saline with Tween-80) was 100 % of control and the T/C (dose: 100.0 mg/kg/injection, schedule: Q01DX001 (ip), vehicle: saline with Tween-80) was 89 % of control and 90 % of control.
For `O=C(OCC(OC(=O)c1ccccc1)C(OC(=O)c1ccccc1)C(OC(=O)c1ccccc1)c1nn[nH]n1)c1ccccc1` (stereo unspecified), the T/C [9] was 100 % of control, the T/C [10] was 100 % of control and the T/C [11] was 95 % of control.
`NC1=NN(Cc2csc(-c3ccccc3)n2)C(=O)C1` was tested, and the T/C (dose: 60.0 mg/kg/injection, schedule: Q01DX005 (ip), vehicle: saline with Tween-80) was 103 % of control, the T/C (dose: 120.0 mg/kg/injection, schedule: Q01DX005 (ip), vehicle: saline with Tween-80) was 95 % of control and the T/C (dose: 240.0 mg/kg/injection, schedule: Q01DX005 (ip), vehicle: saline with Tween-80) was 103 % of control.
With `O=S1(=O)C2CCC(Cl)C1CCC2Cl` (stereo unspecified) the T/C (dose: 75.0 mg/kg/injection, schedule: Q04DX003 (ip), vehicle: Klucel (hydroxypropylcellulose) (HPC)) was 98 % of control and the T/C (dose: 150.0 mg/kg/injection, schedule: Q04DX003 (ip), vehicle: Klucel (hydroxypropylcellulose) (HPC)) was 100 % of control.
For `CCCCCCCCCCCC[N+]1([O-])CCOCC1`, the T/C (dose: 0.75 mg/kg/injection, schedule: Q01DX009 (ip), vehicle: saline with Tween-80) was 93 % of control, the T/C (dose: 1.5 mg/kg/injection, schedule: Q01DX009 (ip), vehicle: saline with Tween-80) was 91 % of control and the T/C (dose: 3.0 mg/kg/injection, schedule: Q01DX009 (ip), vehicle: saline with Tween-80) was 93 % of control. The T/C [15] was 91 % of control, the T/C [16] was 101 % of control and 94 % of control and the T/C [17] was 99 % of control and 97 % of control.
With `CCCC(NC(=O)OCc1ccccc1)C(=O)NC(C)C(=O)O` (stereo unspecified) the T/C (dose: 25.0 mg/kg/injection, schedule: Q01DX009 (ip), vehicle: Klucel (hydroxypropylcellulose) (HPC)) was 104 % of control, the T/C [3] was 105 % of control and the T/C [7] was 100 % of control. The T/C [4] was 106 % of control.
